# Data published in patent publication US8642597B2, “Pyrazole compounds for controlling invertebrate pests” (BASF SE, priority 2007, dated 2014).
# Assays:
# Format in all cases: in vivo
# [1] = system: Cotton Aphid (aphis gossypii, Mixed Life Stages); experiment: Cotton aphid (aphis gossypii, mixed life stages), cotyledon dip test; conditions: 120 h, mortality counts after 5 days, in comparison with untreated controls
# Source text: (§1) The active compounds were formulated in 50:50 (vol:vol) acetone:water and 100 ppm Kinetica™ surfactant.
# Cotton plants at the cotyledon stage (one plant per pot) were infested by placing a heavily infested leaf from the main colony on top of each cotyledon. The aphids were allowed to transfer to the host plant overnight, and the leaf used to transfer the aphids was removed. The cotyledons were dipped in the test solution and allowed to dry. After 5 days, mortality counts were made.
# [2] = system: Cowpea Aphid (aphis craccivora); experiment: Cowpea aphid (aphis craccivora), spray on potted cowpea plants; conditions: population reduction assessed after 24, 72 and 120 hours, in comparison with untreated controls
# Experimental: The active compounds were formulated in 50:50 (vol:vol) acetone:water. The test solution was prepared at the day of use.
# Potted cowpea plants colonized with 100-150 aphids of various stages were sprayed after the pest population had been recorded. Population reduction was assessed after 24, 72, and 120 hours.
# [3] = system: Vetch Aphid (Megoura viciae); experiment: Vetch aphid (Megoura viciae), bean leaf disk microtiterplate test; conditions: foliar, 144 h, concentration of the test solution 2500 mg/L, 6 days
# Experimental: The active compounds were formulated in 1:3 (vol:vol) DMSO:water with different concentrations of formulated compounds.
# Bean leaf disks were placed into microtiterplates filled with 0.8% agar-agar and 2.5 ppm OPUS™. The leaf disks were sprayed with 2.5 μl of the test solution and 5 to 8 adult aphids were placed into the microtiterplates which were then closed and kept at 23±1° C. and 50±5% relative humidity under fluorescent light for 6 days. Mortality was assessed on the basis of vital, reproduced aphids. Aphid mortality and fecundity was then visually assessed.
# [4] = system: Green Peach Aphid (Myzus persicae, Mixed Life Stages); experiment: Green peach aphid (Myzus persicae, mixed life stages), pepper leaf dip test; conditions: foliar, 120 h, after 5 days, in comparison with untreated controls
# Source text: as §1
# Pepper plants in the 2nd leaf-pair stage (variety ‘California Wonder’) were infested with approximately 40 laboratory-reared aphids by placing infested leaf sections on top of the test plants. The leaf sections were removed after 24 hr. The leaves of the intact plants were dipped into gradient solutions of the test compound and allowed to dry. Test plants were maintained under fluorescent light (24 hour photoperiod) at about 25° C. and 20-40% relative humidity. Aphid mortality on the treated plants, relative to mortality on check plants, was determined after 5 days.
# [5] = system: Silverleaf Whitefly (bemisia argentifolii, adult); experiment: Silverleaf whitefly (bemisia argentifolii, adult), cotton cotyledon dip test; conditions: 72 h, 3 days after treatment, in comparison with untreated controls
# Experimental: as §1
# Selected cotton plants were grown to the cotyledon state (one plant per pot). The cotyledons were dipped into the test solution to provide complete coverage of the foliage and placed in a well-vented area to dry. Each pot with treated seedling was placed in a plastic cup and 10 to 12 whitefly adults (approximately 3-5 day old) were introduced. The insects were collected using an aspirator and an 0.6 cm, non-toxic Tygon® tubing (R-3603) connected to a barrier pipette tip. The tip, containing the collected insects, was then gently inserted into the soil containing the treated plant, allowing insects to crawl out of the tip to reach the foliage for feeding. The cups were covered with a reusable screened lid (150 micron mesh polyester screen PeCap from Tetko Inc). Test plants were maintained in the holding room at about 25° C. and 20-40% relative humidity for 3 days avoiding direct exposure to the fluorescent light (24 hour photoperiod) to prevent trapping of heat inside the cup. Mortality was assessed 3 days after treatment of the plants.
# [6] = system: Southern Armyworm (spodoptera eridania, 2nd instar larvae); experiment: Southern armyworm (spodoptera eridania, 2nd instar larvae), lima bean leaf dip test; conditions: foliar, 96 h, at 4 days, in comparison with untreated controls
# Experimental: as §1
# A pair of first true leaves of Sieva lima bean was dipped in the test solution and allowed to dry. The leaf was then placed in a plastic perforated zip enclosure bag and ten 2nd instar larvae were added. At 4 days, observations were made of mortality and reduced feeding.
# [7] = system: Boll Weevil (Anthonomus grandis); experiment: Boll weevil (Anthonomus grandis), insect diet microtiter plate test; conditions: 120 h, concentration of the test solution 2500 mg/L, egg and larval mortality after 5 days
# Experimental: The compounds were formulated in 75:25 (vol:vol) water:DMSO.
# For evaluating control of boll weevil (Anthonomus grandis) the test unit consisted of 24-well-microtiter plates containing an insect diet and 20-30 A. grandis eggs. Different concentrations of formulated compounds were sprayed onto the insect diet at 20 μl, using a custom built micro atomizer, at two replications. After application, the microtiter plates were incubated at 23±1° C. and 50±5% relative humidity for 5 days. Egg and larval mortality was then visually assessed.
Structure (SMILES),mortality at 300 ppm [1] [%],mortality at 300 ppm [2] [%],mortality at 2500 µg/mL [3] [%],mortality at 300 ppm [4] [%],mortality at 300 ppm [5] [%],mortality at 300 ppm [6] [%],mortality at 2500 µg/mL [7] [%]
CC(=O)N(C(=O)c1cn(C)nc1C(F)(F)F)c1cccnc1 [Compound 134],≥ 75,≥ 75,≥ 80,≥ 50,≥ 50,–,–
O=C(Nc1cccnc1)c1cnn(-c2ccc([N+](=O)[O-])cc2)c1C(F)(F)F [Compound 199],≥ 75,≥ 75,–,≥ 50,–,≥ 50,–
CN(C(=O)c1cnn(C)c1C(F)(F)F)c1cccnc1 [Compound 174],≥ 75,≥ 75,–,≥ 50,–,≥ 50,–
CN(C(=O)c1cnn(C(F)(F)F)c1)c1cccnc1 [Compound 233],≥ 75,–,–,≥ 50,–,≥ 50,–
CN(C(=O)c1cnn(C(F)F)c1C(F)F)c1cccnc1 [Compound 189],≥ 75,≥ 75,≥ 80,≥ 50,–,≥ 50,100
Cc1cccc(-n2ncc(C(=O)Nc3cccnc3)c2C(F)F)c1 [Compound 158],≥ 75,≥ 75,≥ 80,≥ 50,–,≥ 50,–
Cn1cc(C(=O)Nc2cccnc2)c(C(F)F)n1 [Compound 170],≥ 75,≥ 75,–,≥ 50,–,≥ 50,–
O=C(Nc1cccnc1)c1cnn(-c2cccc(Cl)c2)c1C(F)F [Compound 157],≥ 75,≥ 75,≥ 80,≥ 50,–,≥ 50,100
Cc1nn(C(F)F)cc1C(=O)N(C)c1cccnc1 [Compound 229],≥ 75,–,–,≥ 50,≥ 50,–,–
Cn1nc(C(F)(F)F)c(C(=O)Nc2cccnc2)c1F [Compound 78],–,–,–,–,–,≥ 50,–
O=C(Nc1cccnc1)c1cn[nH]c1 [Compound 87],≥ 75,≥ 75,≥ 80,≥ 50,–,–,100
CCc1c(C(=O)N(C)c2cccnc2)cnn1CC [Compound 185],≥ 75,≥ 75,≥ 80,≥ 50,–,–,100
Cc1c(C(=O)Nc2cccnc2)cnn1C [Compound 179],≥ 75,≥ 75,–,≥ 50,–,≥ 50,–
Cc1c(C(=O)N(C)c2cccnc2)cnn1C(F)F [Compound 220],≥ 75,≥ 75,≥ 80,≥ 50,–,≥ 50,100
Cn1cc(C(=O)Nc2cccnc2)c(OC(F)F)n1 [Compound 110],≥ 75,≥ 75,≥ 80,≥ 50,–,–,100
CN(C(=O)c1cnn(C(F)F)c1C(F)(F)F)c1cccnc1 [Compound 191],≥ 75,≥ 75,≥ 80,–,–,≥ 50,100
Cn1ncc(C(=O)Nc2cccnc2)c1Cl [Compound 83],≥ 75,≥ 75,–,≥ 50,≥ 50,–,–

Structure (SMILES),mortality at 300 ppm [1] [%],mortality at 300 ppm [2] [%],mortality at 2500 µg/mL [3] [%],mortality at 300 ppm [4] [%],mortality at 300 ppm [5] [%],mortality at 300 ppm [6] [%],mortality at 2500 µg/mL [7] [%]
Cn1ncc(C(=O)Nc2cccnc2)c1C(F)F [Compound 167],≥ 75,≥ 75,≥ 80,≥ 50,–,–,100
O=C(Nc1cccnc1)c1cnn(C(F)F)c1C(F)(F)F [Compound 190],≥ 75,≥ 75,≥ 80,≥ 50,–,–,100
Cn1ncc(C(=O)Nc2cccnc2)c1C1CC1 [Compound 89],≥ 75,≥ 75,≥ 80,≥ 50,≥ 50,–,–
O=C(Nc1cccnc1)c1cn(C(F)F)nc1C(F)F [Compound 194],≥ 75,≥ 75,≥ 80,≥ 50,–,–,100
Cc1ccccc1-n1ncc(C(=O)Nc2cccnc2)c1C(F)F [Compound 156],≥ 75,≥ 75,≥ 80,≥ 50,–,–,100
O=C(Nc1cccnc1)c1cn(-c2ccc(Cl)cc2)nc1C(F)(F)F [Compound 73],≥ 75,≥ 75,≥ 80,≥ 50,≥ 50,–,–
CCS/C(=N\c1cccnc1)c1cn(C)nc1C(F)(F)F [Compound 243],≥ 75,≥ 75,≥ 80,≥ 50,–,–,100
CCn1ncc(C(=O)N(C)c2cccnc2)c1C [Compound 180],≥ 75,≥ 75,–,≥ 50,≥ 50,–,–
O=C(Nc1cccnc1)c1cnn(Cc2ccccc2)c1 [Compound 82],≥ 75,≥ 75,–,≥ 50,≥ 50,–,–
CCCn1cc(C(=O)Nc2cccnc2)cn1 [Compound 108],≥ 75,≥ 75,≥ 80,≥ 50,–,–,100
CC(C)Cn1cc(C(=O)Nc2cccnc2)cn1 [Compound 98],≥ 75,≥ 75,≥ 80,≥ 50,–,≥ 50,–
CCn1ncc(C(=O)N(C)c2cccnc2)c1C(F)(F)F [Compound 186],≥ 75,≥ 75,≥ 80,≥ 50,–,–,100
Cc1nn(C(F)F)cc1C(=O)Nc1cccnc1 [Compound 209],≥ 75,≥ 75,–,≥ 50,–,≥ 50,–
Cn1cc(C(=O)Nc2cccnc2)c(C(F)(F)F)n1 [Compound 196],≥ 75,≥ 75,–,≥ 50,–,≥ 50,–
O=C(Nc1cccnc1)c1cnn(-c2ccc(F)cc2)c1C(F)(F)F [Compound 228],≥ 75,–,≥ 80,≥ 50,–,≥ 50,–
O=C(Nc1cccnc1)c1cnn(C(F)F)c1 [Compound 213],≥ 75,≥ 75,–,≥ 50,–,≥ 50,–
Cc1ccc(-n2ncc(C(=O)Nc3cccnc3)c2C(F)F)cc1 [Compound 138],≥ 75,≥ 75,≥ 80,≥ 50,–,–,100
